In US12655116B2, “Substituted isophthalic acid diamides” (Bayer Aktiengesellschaft, priority 2020, dated 2026):

Key:
POLCO = test: Pre-emergence herbicidal action against POLCO; format: in vivo, Polygonum convolvulus; conditions: dosage 80 g/ha
Outline: (§1)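 Seeds sown in sandy loam, soil-covered; compound sprayed on soil surface pre-emergence. Application: WP/EC, 600–800 l/ha, 0.2% wetting agent. Readout: visual % damage at 3 weeks.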

PHBPU [1] = test: Post-emergence herbicidal action against PHBPU; format: in vivo, Pharbitis purpurea
Outline: (§2)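 Percent herbicidal action is rated by eye about 3 weeks after treatment against untreated controls, where 100% means dead plants and 0% means like controls. Plants in sandy loam are sprayed on green parts at the one-leaf stage with aqueous WP or EC preparations at 600 to 800 l/ha plus 0.2% wetting agent.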

ECHCG [2] = test: Pre-emergence herbicidal action against ECHCG; format: in vivo, Echinochloa crus-galli; conditions: 80 g/ha
Outline: as §1

AVEFA [3] = test: Pre-emergence herbicidal action against AVEFA; format: in vivo, Avena fatua; conditions: 80 g/ha, pre-emergence
Outline: as §1

ALOMY = test: Pre-emergence herbicidal action against ALOMY; format: in vivo, Alopecurus myosuroides; conditions: 80 g/ha, pre-emergence, scored visually after 3 weeks vs untreated controls (100% = plants have died, 0% = like control plants)
Outline: as §1

VIOTR [4] = test: Pre-emergence herbicidal action against VIOTR; format: in vivo, Viola tricolor
Outline: as §1

VIOTR [5] = test: Post-emergence herbicidal action against VIOTR; format: in vivo, Viola tricolor
Outline: as §2

MATIN [6] = test: Post-emergence herbicidal action against MATIN; format: in vivo, Matricaria inodora
Outline: as §2

DIGSA [7] = test: Pre-emergence herbicidal action against DIGSA; format: in vivo, Digitaria sanguinalis
Outline: as §1

ABUTH [8] = test: Post-emergence herbicidal action against ABUTH; format: in vivo, Abutilon theophrasti; conditions: visual assessment about 3 weeks after treatment vs untreated controls
Outline: as §2

ABUTH [9] = test: Pre-emergence herbicidal action against ABUTH; format: in vivo, Abutilon theophrasti; conditions: for Pre-emergence action against ABUTH (herbicidal activity): 80 g/ha, scored visually after 3 weeks vs untreated controls (100% = plants have died, 0% = like control plants); for Pre-emergence action against ABUTH (herbicidal activity in percent): dosage 20 g/ha, scored visually after 3 weeks vs untreated controls, 100% = plants have died, 0% = like control plants
Outline: as §1

STEME [10] = test: Pre-emergence herbicidal action against STEME; format: in vivo, Stellaria media
Outline: as §1

STEME [11] = test: Post-emergence herbicidal action against STEME; format: in vivo, Stellaria media
Description: Seeds of monocotyledonous and dicotyledonous weed and crop plants are laid out in sandy loam soil in wood-fiber pots, covered with soil and cultivated in a greenhouse under good growth conditions. 2 to 3 weeks after sowing, the test plants are treated at the one-leaf stage. The compounds of the invention, formulated in the form of wettable powders (WP) or as emulsion concentrates (EC), are then sprayed onto the green parts of the plants in the form of an aqueous suspension or emulsion at a water application rate equivalent to 600 to 800 l/ha, with addition of 0.2% wetting agent. After the test plants have been left to stand in the greenhouse under optimal growth conditions for about 3 weeks, the action of the preparations is assessed visually in comparison to untreated controls (herbicidal action in percent (%): 100% activity=the plants have died, 0% activity=like control plants). […] The tables below illustrate, in an illustrative manner, the post-emergence herbicidal action of the compounds of the invention, the herbicidal activity being stated in percent.

AVEFA [12] = test: Post-emergence herbicidal action against AVEFA; format: in vivo, Avena fatua; conditions: 20 g/ha, visual assessment about 3 weeks after treatment, 100% = plants have died, 0% = like control plants
Outline: as §2

MATIN [13] = test: Pre-emergence herbicidal action against MATIN; format: in vivo, Matricaria inodora
Outline: as §1

SETVI [14] = test: Pre-emergence herbicidal action against SETVI; format: in vivo, Setaria viridis; conditions: dosage 80 g/ha
Outline: as §1

AMARE [15] = test: Post-emergence herbicidal action against AMARE; format: in vivo, Amaranthus retroflexus; conditions: 20 g/ha, visual assessment about 3 weeks after treatment, 100% = plants have died, 0% = like control plants
Outline: as §2

AMARE [16] = test: Pre-emergence herbicidal action against AMARE; format: in vivo, Amaranthus retroflexus
Outline: as §1

SETVI [17] = test: Post-emergence herbicidal action against SETVI; format: in vivo, Setaria viridis; conditions: dosage 20 g/ha
Outline: as §2

PHBPU [18] = test: Pre-emergence herbicidal action against PHBPU; format: in vivo, Pharbitis purpurea; conditions: dosage 80 g/ha
Outline: as §1

VERPE [19] = test: Pre-emergence herbicidal action against VERPE; format: in vivo, Veronica persica; conditions: dosage 80 g/ha
Outline: as §1

VERPE [20] = test: Post-emergence herbicidal action against VERPE; format: in vivo, Veronica persica; conditions: 20 g/ha
Outline: as §2

ECHCG [21] = test: Post-emergence herbicidal action against ECHCG; format: in vivo, Echinochloa crus-galli
Outline: as §2

DIGSA [22] = test: Post-emergence herbicidal action against DIGSA; format: in vivo, Digitaria sanguinalis
Outline: as §2

[23] = 20 g/ha, scored visually after 3 weeks vs untreated controls, 100% = plants have died, 0% = like control plants
[24] = 80 g/ha, scored visually after 3 weeks vs untreated controls (100% = plants have died, 0% = like control plants)

CCCn1nnnc1NC(=O)c1ccc(C(F)(F)F)c(C(=O)NCC)c1Br [Example 3-208]
Pre-emergence action against POLCO in % (POLCO): 80%
Post-emergence action against PHBPU in % (PHBPU [1]; dosage 5 g/ha): 80%
Post-emergence action against PHBPU in % (PHBPU [1]; dosage 20 g/ha): 90%
Pre-emergence action against ECHCG in % (ECHCG [2]): 80%
Pre-emergence action against AVEFA in % (AVEFA [3]): 100%
Pre-emergence action against ALOMY (herbicidal activity) (ALOMY): 90%
Pre-emergence action against VIOTR in % (VIOTR [4]; dosage 80 g/ha): 100%
Post-emergence action against VIOTR in % (VIOTR [5]; 5 g/ha): 100%
Post-emergence action against VIOTR in % (VIOTR [5]; 20 g/ha): 100%
Post-emergence action against MATIN in % (MATIN [6]; dosage 5 g/ha): 90%
Post-emergence action against MATIN in % (MATIN [6]; dosage 20 g/ha): 90%
Pre-emergence action against DIGSA in % (DIGSA [7]; dosage 80 g/ha): 80%
Post-emergence action against ABUTH in % (ABUTH [8]; dosage 5 g/ha): 90%
Post-emergence action against ABUTH in % (ABUTH [8]; dosage 20 g/ha): 90%
Pre-emergence action against ABUTH (herbicidal activity) (ABUTH [9]): 100%
Pre-emergence action against ABUTH (herbicidal activity in percent) (ABUTH [9]): 100%
Pre-emergence action against STEME in % (STEME [10]; dosage 20 g/ha): 90%
Pre-emergence action against STEME in % (STEME [10]; dosage 80 g/ha): 100%
Post-emergence action against STEME in % (STEME [11]; 20 g/ha): 90%
Post-emergence action against STEME in % (STEME [11]; dosage 5 g/ha): 80%
Post-emergence action at 20 g/ha against AVEFA in % (AVEFA [12]): 80%
Pre-emergence action against MATIN in % (MATIN [13]; dosage 20 g/ha): 100%
Pre-emergence action against MATIN in % (MATIN [13]; dosage 80 g/ha): 100%
Pre-emergence action against SETVI in % (SETVI [14]): 100%
Post-emergence action at 20 g/ha against AMARE in % (AMARE [15]): 90%
Pre-emergence action against AMARE in % (AMARE [16]; [23]): 100%
Pre-emergence action against AMARE in % (AMARE [16]; [24]): 100%

CCCn1nnnc1NC(=O)c1ccc(C(F)(F)F)c(C(=O)NC2CC2)c1CC [Example 3-273]
Post-emergence action against SETVI in % (SETVI [17]): 80%
Pre-emergence action against PHBPU in % (PHBPU [18]): 90%
Post-emergence action against PHBPU in % (PHBPU [1]; dosage 20 g/ha): 80%
Pre-emergence action against ECHCG in % (ECHCG [2]): 80%
Pre-emergence action against AVEFA in % (AVEFA [3]): 90%
Pre-emergence action against VIOTR in % (VIOTR [4]; dosage 20 g/ha): 100%
Pre-emergence action against VIOTR in % (VIOTR [4]; dosage 80 g/ha): 100%
Pre-emergence action against VERPE in % (VERPE [19]): 100%
Post-emergence action against MATIN in % (MATIN [6]; dosage 5 g/ha): 80%
Post-emergence action against MATIN in % (MATIN [6]; dosage 20 g/ha): 90%
Pre-emergence action against DIGSA in % (DIGSA [7]; dosage 20 g/ha): 90%
Pre-emergence action against DIGSA in % (DIGSA [7]; dosage 80 g/ha): 100%
Post-emergence action against VERPE in % (VERPE [20]): 80%
Post-emergence action against ECHCG in % (ECHCG [21]; dosage 5 g/ha): 80%
Post-emergence action against ECHCG in % (ECHCG [21]; dosage 20 g/ha): 80%
Post-emergence action against ABUTH in % (ABUTH [8]; dosage 5 g/ha): 80%
Post-emergence action against ABUTH in % (ABUTH [8]; dosage 20 g/ha): 90%
Pre-emergence action against ABUTH (herbicidal activity) (ABUTH [9]): 100%
Pre-emergence action against ABUTH (herbicidal activity in percent) (ABUTH [9]): 90%
Pre-emergence action against STEME in % (STEME [10]; dosage 20 g/ha): 90%
Pre-emergence action against STEME in % (STEME [10]; dosage 80 g/ha): 100%
Post-emergence action against DIGSA in % (DIGSA [22]; 5 g/ha): 80%
Post-emergence action against DIGSA (DIGSA [22]; 20 g/ha): 90%
Post-emergence action against STEME in % (STEME [11]; 20 g/ha): 90%
Post-emergence action against STEME in % (STEME [11]; dosage 5 g/ha): 80%
Post-emergence action at 20 g/ha against AVEFA in % (AVEFA [12]): 80%
Pre-emergence action against MATIN in % (MATIN [13]; dosage 20 g/ha): 90%
Pre-emergence action against MATIN in % (MATIN [13]; dosage 80 g/ha): 100%
Pre-emergence action against SETVI in % (SETVI [14]): 100%
Pre-emergence action against AMARE in % (AMARE [16]; [23]): 100%
Pre-emergence action against AMARE in % (AMARE [16]; [24]): 100%
